From patent publication US20260355164A1, “USE OF JUN INHIBITOR IN PREPARING MEDICAMENT FOR TREATING HEART FAILURE WITH PRESERVED EJECTION FRACTION” (Fuwai Hospital, Chinese Academy of Medical Sciences and …, priority 2022, published 2026)
“Also recorded” adds a separate entry of the source.

Assays:
Type in all cases: in vivo, mouse (C57BL/6N)
[1] = test system: mouse HFpEF model; assay: Echocardiography and Doppler imaging (systolic and diastolic function) in HFpEF model mice (HFD+L-NAME); conditions: male mice
Text: (§1) Male C57BL/6N wild-type mice aged 8 to 10 weeks were divided into three groups, namely, normal group (normal diet and drinking water), model control group (high-fat diet combined with administration of N-nitro-L-arginine methyl ester) and model treatment group (high-fat diet combined with administration of N-nitro-L-arginine methyl ester and treatment with T-5224). Among them, the model control group and the model treatment group were modeled by the following literature: Gabriele G. Schiattarella et al., Nitrosative stress drives heart failure with preserved ejection fraction, https://doi.org/10.1038/s41586-019-1100-z. Specifically, heart failure with preserved ejection fraction was induced by a high-fat diet (HFD) (60% kcal, from fat (lard)) and N-nitro-L-arginine methyl ester (abbreviated as L-NAME, 0.5 g/L in drinking water) to obtain the HFpEF animal model. […]
All the mice were raised under different conditions for five weeks and then began to undergo conventional echocardiography and Doppler imaging, which was performed every two weeks until the end of the 15th week. […] All parameters were measured at least 3 times, and the mean values were provided. […]

[2] = Changes in body weight / obesity of HFpEF model mice with different treatments; conditions: HFD+L-NAME mice treated with T-5224 (total dose 250 mg/kg); FIG. 3C
Text: Male C57BL/6N wild-type mice aged 8 to 10 weeks were divided into three groups, namely, normal group (normal diet and drinking water), model control group (high-fat diet combined with administration of N-nitro-L-arginine methyl ester) and model treatment group (high-fat diet combined with administration of N-nitro-L-arginine methyl ester and treatment with T-5224). Among them, the model control group and the model treatment group were modeled by the following literature: Gabriele G. Schiattarella et al., Nitrosative stress drives heart failure with preserved ejection fraction, https://doi.org/10.1038/s41586-019-1100-z. Specifically, heart failure with preserved ejection fraction was induced by a high-fat diet (HFD) (60% kcal, from fat (lard)) and N-nitro-L-arginine methyl ester (abbreviated as L-NAME, 0.5 g/L in drinking water) to obtain the HFpEF animal model.
After the animal model was obtained, that was, from the 5′ week of inducing the HFpEF model, the model treatment group was treated with T-5224, the model control group was treated with a solvent without drug, and the mice with normal diet and drinking water during the whole induction process were used as negative control. The mice were administrated with drugs when they were raised for 5 weeks. For the treatment group, T-5224 was administered at 250 mg/kg according to the body weight of mice. […]

[3] = test system: Jun; assay: Quantitative PCR detection of Jun expression in cardiomyocytes of HFpEF model mice; conditions: HFD+L-NAME mice treated with T-5224, compared with the model control group; qPCR, b-Actin standardized; FIG. 3D
Text: as §1, with “https://doi.org/10.1038/s41586-019-1100-z.” for “https://doi.org/10.1038/s41586-019-1100-z. Specifically, heart failure with preserved ejection fraction was induced by a high-fat diet (HFD) (60% kcal, from fat (lard)) and N-nitro-L-arginine methyl ester (abbreviated as L-NAME, 0.5 g/L in drinking water) to obtain the HFpEF animal model.”
In the 15th week of model induction, the cardiomyocytes of normal group and the model control group were isolated by perfusion method, and quantitative RCR detection was performed. […]
Total RNA was extracted from cells using GeneJet RNA purification kit (Thermo Scientific, K0732), and […] of total RNA was reverse transcribed using iScript TM cDNA synthesis kit (Bio-Rad, 1708890) to generate cDNA. qPCR was performed using iTaqUniversl SYBR Green supermix (1725121, Bio-Rad) on ABI Vii7 real-time system (Life Technologies, Q6), and b-Actin was used for standardized quantitative analysis. […]

O=C(O)CCc1cc(C(=O)c2ccc(OC3CCCC3)cc2O)ccc1OCc1ccc2c(O)noc2c1 [T-5224]
diastolic function (E/E′) ([1]; HFD+0.5 g/L L-NAME, T-5224 0.8 mg in 200 μL 1% PVP every other day, 5th to 13th week, total dose 250 mg/kg, followed to 15th week, FIG. 3B): significantly improved and could be maintained until the 15th week | occurrence and development of HFpEF ([1]; HFD+L-NAME, cardiac function detection after T-5224 administration (from 5th week, total dose 250 mg/kg), FIG. 3A-B, 250 mg/kg): effectively alleviate the occurrence and development of HFpEF; also recorded: well suppressed | mouse obesity (changes in body weight) [2]: improved | expression of Jun in cardiomyocytes [3]: down-regulated compared with the model control group
